Assay results taken from US20240158446A1, “CYCLIC COMPOUND HAVING SELECTIVE INHIBITORY ACTION ON KRAS OVER HRAS AND NRAS” (CHUGAI SEIYAKU KABUSHIKI KAISHA, priority 2021, published 2024).
*1 amine or outer side, *2 acyl side, *3 side chain or, on linkers, in order; H or OH if unused. Where a SMILES comes first, the peptide text is derived from it. Bridges are numbered along the chain shown (N, C = ends). [ ]: non-standard residue; d: D form. The star is where a group is joined. hPhe(3-Cl-4-CF3) = N[C@@H](CCc1ccc(C(F)(F)F)c(Cl)c1)C(=O)O; NPrPhe(4-CF3) = CCCN[C@@H](Cc1ccc(C(F)(F)F)cc1)C(=O)O; Pro(4-spirocPr) = O=C(O)[C@@H]1CC2(CC2)CN1; Abu(4,4,4-F3) = N[C@@H](CC(F)(F)F)C(=O)O; Morpholine(3S-CO) = O=C(O)[C@@H]1COCCN1; Pip(4,4-F2) = O=C(O)[C@@H]1CC(F)(F)CCN1; NMeGly(cPent) = CN[C@H](C(=O)O)C1CCCC1; Hyp = O=C(O)[C@@H]1C[C@@H](O)CN1; NMeD = CN[C@@H](CC(=O)O)C(=O)O; NMeL = CN[C@@H](CC(C)C)C(=O)O; X12 = N#CCN(CC(=O)[*:2])[*:1]; hPip = O=C(O)[C@@H]1CCCCCN1; Pip = O=C(O)[C@@H]1CCCCN1; Morpholide = C1CN(*)CCO1; NMeA = CN[C@@H](C)C(=O)O; Ac5c = NC1(C(=O)O)CCCC1; Aze = O=C(O)[C@@H]1CCN1; NPrGly = CCCNCC(=O)O; NEtG = CCNCC(=O)O; Sar = CNCC(=O)O

Columns and labels:
[1] = molecular target: GDP-bound KRAS wild-type protein (Homo sapiens, UniProt P01116); test: Binding to KRAS by surface plasmon resonance (SPR), Single Cycle Kinetics; settings: SPR Single Cycle Kinetics, GDP-bound KRAS wild-type protein, 1:1 binding model; read-out: KRAS KD
Chain of GDP-bound KRAS wild-type protein (P01116 whole entry): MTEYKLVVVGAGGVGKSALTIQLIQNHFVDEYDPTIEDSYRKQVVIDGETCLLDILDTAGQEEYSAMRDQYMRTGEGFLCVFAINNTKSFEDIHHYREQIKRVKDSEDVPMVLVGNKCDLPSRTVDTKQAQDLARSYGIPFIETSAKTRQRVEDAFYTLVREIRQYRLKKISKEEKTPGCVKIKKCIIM

[2] = molecular target: GDP-bound HRAS wild-type protein (Homo sapiens, UniProt P01112); test: Binding to HRAS by surface plasmon resonance (SPR), Single Cycle Kinetics; settings: SPR, GDP-bound HRAS wild-type protein vs GDP-bound KRAS wild-type protein
Chain of GDP-bound HRAS wild-type protein (P01112 whole entry): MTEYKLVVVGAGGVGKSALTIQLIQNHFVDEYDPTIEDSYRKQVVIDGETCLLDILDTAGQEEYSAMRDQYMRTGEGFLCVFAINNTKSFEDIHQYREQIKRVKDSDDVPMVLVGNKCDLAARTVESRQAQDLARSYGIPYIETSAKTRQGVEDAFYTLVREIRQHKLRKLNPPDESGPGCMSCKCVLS

[3] = molecular target: GDP-bound NRAS wild-type protein (Homo sapiens, UniProt P01111); test: Binding to NRAS by surface plasmon resonance (SPR), Single Cycle Kinetics; settings: SPR, GDP-bound NRAS wild-type protein vs GDP-bound KRAS wild-type protein
Chain of GDP-bound NRAS wild-type protein (P01111 whole entry): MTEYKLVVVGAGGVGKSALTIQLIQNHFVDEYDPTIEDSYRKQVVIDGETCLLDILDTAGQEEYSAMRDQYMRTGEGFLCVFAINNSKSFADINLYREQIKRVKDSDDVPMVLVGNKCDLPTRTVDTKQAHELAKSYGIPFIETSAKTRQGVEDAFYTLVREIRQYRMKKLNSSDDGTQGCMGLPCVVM

SMILES | Kd [1] | HRAS/KRAS (ratio of KD value for HRAS to KD value for KRAS) [2] | NRAS/KRAS (ratio of KD value for NRAS to KD value for KRAS) [3]
CCCN1CC(=O)N2CC[C@H]2C(=O)N(CCC)[C@@H](Cc2ccc(C(F)(F)F)cc2)C(=O)N(C)CC(=O)N[C@@H](CCc2ccc(C(F)(F)F)c(Cl)c2)C(=O)N2CCC[C@H]2C(=O)NC2(CCCC2)C(=O)N(C)[C@@H](C2CCCC2)C(=O)N(C)[C@H](C(=O)N2CCOCC2)CC(=O)N(C)[C@@H](CC(C)C)C(=O)N[C@@H]([C@@H](C)CC)C1=O [PP0274] ([NMeL]I[NPrGly][Aze][NPrPhe(4-CF3)][Sar][hPhe(3-Cl-4-CF3)]P[Ac5c][NMeGly(cPent)][NMeD]-Morpholide; lactam N-11) | 0.47 nM | B (a compound having 3 or more and less than 10 is denoted as B) | C (A compound having a KD ratio of 0.1 or more and less than 3 is denoted as C)
CCCN1C(=O)[C@@H]2CCN2C(=O)CN(CC#N)C(=O)[C@H]([C@@H](C)CC)NC(=O)[C@H](CC(C)C)N(C)C(=O)C[C@@H](C(=O)N2CCOCC2)N(C)C(=O)[C@H](C2CCCC2)N(C)C(=O)C2(CCCC2)NC(=O)[C@@H]2CCCN2C(=O)[C@H](CCc2ccc(C(F)(F)F)c(Cl)c2)NC(=O)CN(C)C(=O)[C@@H]1Cc1ccc(C(F)(F)F)cc1 [PP0275] ([NMeL]I[X12][Aze][NPrPhe(4-CF3)][Sar][hPhe(3-Cl-4-CF3)]P[Ac5c][NMeGly(cPent)][NMeD]-Morpholide; lactam N-11) | 0.3 nM | C (A compound having a KD ratio of 0.1 or more and less than 3 is denoted as C) | C (A compound having a KD ratio of 0.1 or more and less than 3 is denoted as C)
CCCN1C(=O)[C@@H]2CCN2C(=O)[C@H](C)N(C)C(=O)[C@H]([C@@H](C)CC)NC(=O)[C@H](CC(C)C)N(C)C(=O)C[C@@H](C(=O)N2CCOCC2)N(C)C(=O)[C@H](C2CCCC2)N(C)C(=O)C2(CCCC2)NC(=O)[C@@H]2CCN2C(=O)[C@H](CCc2ccc(C(F)(F)F)c(Cl)c2)NC(=O)CN(C)C(=O)[C@@H]1Cc1ccc(C(F)(F)F)cc1 [PP0281] ([NMeL]I[NMeA][Aze][NPrPhe(4-CF3)][Sar][hPhe(3-Cl-4-CF3)][Aze][Ac5c][NMeGly(cPent)][NMeD]-Morpholide; lactam N-11) | 0.48 nM | C (A compound having a KD ratio of 0.1 or more and less than 3 is denoted as C) | C (A compound having a KD ratio of 0.1 or more and less than 3 is denoted as C)
CCCN1C(=O)[C@@H]2CCN2C(=O)[C@H](C)N(C)C(=O)[C@H]([C@@H](C)CC)NC(=O)[C@H](CC(C)C)N(C)C(=O)C[C@@H](C(=O)N2CCOCC2)N(C)C(=O)[C@H](C2CCCC2)N(C)C(=O)C2(CCCC2)NC(=O)[C@@H]2CC3(CC3)CN2C(=O)[C@H](CCc2ccc(C(F)(F)F)c(Cl)c2)NC(=O)CN(C)C(=O)[C@@H]1Cc1ccc(C(F)(F)F)cc1 [PP0282] ([NMeL]I[NMeA][Aze][NPrPhe(4-CF3)][Sar][hPhe(3-Cl-4-CF3)][Pro(4-spirocPr)][Ac5c][NMeGly(cPent)][NMeD]-Morpholide; lactam N-11) | 0.11 nM | C (A compound having a KD ratio of 0.1 or more and less than 3 is denoted as C) | C (A compound having a KD ratio of 0.1 or more and less than 3 is denoted as C)
CCCN1C(=O)[C@@H]2CCN2C(=O)[C@H](C)N(C)C(=O)[C@H]([C@@H](C)CC)NC(=O)[C@H](CC(C)C)N(C)C(=O)C[C@@H](C(=O)N2CCOCC2)N(C)C(=O)[C@H](C2CCCC2)N(C)C(=O)C2(CCCC2)NC(=O)[C@@H]2C[C@@H](OC)CN2C(=O)[C@H](CCc2ccc(C(F)(F)F)c(Cl)c2)NC(=O)CN(C)C(=O)[C@@H]1Cc1ccc(C(F)(F)F)cc1 [PP0283] ([NMeL]I[NMeA][Aze][NPrPhe(4-CF3)][Sar][hPhe(3-Cl-4-CF3)][Hyp](Me)[Ac5c][NMeGly(cPent)][NMeD]-Morpholide; lactam N-11) | 0.063 nM | C (A compound having a KD ratio of 0.1 or more and less than 3 is denoted as C) | C (A compound having a KD ratio of 0.1 or more and less than 3 is denoted as C)
CCCN1C(=O)[C@@H]2CCN2C(=O)[C@H](C)N(C)C(=O)[C@H]([C@@H](C)CC)NC(=O)[C@H](CC(C)C)N(C)C(=O)C[C@@H](C(=O)N2CCOCC2)N(C)C(=O)[C@H](C2CCCC2)N(C)C(=O)C2(CCCC2)NC(=O)[C@@H]2CCCCN2C(=O)[C@H](CCc2ccc(C(F)(F)F)c(Cl)c2)NC(=O)CN(C)C(=O)[C@@H]1Cc1ccc(C(F)(F)F)cc1 [PP0284] ([NMeL]I[NMeA][Aze][NPrPhe(4-CF3)][Sar][hPhe(3-Cl-4-CF3)][Pip][Ac5c][NMeGly(cPent)][NMeD]-Morpholide; lactam N-11) | 0.67 nM | B (a compound having 3 or more and less than 10 is denoted as B) | C (A compound having a KD ratio of 0.1 or more and less than 3 is denoted as C)
CCCN1C(=O)[C@@H]2CCN2C(=O)[C@H](C)N(C)C(=O)[C@H]([C@@H](C)CC)NC(=O)[C@H](CC(C)C)N(C)C(=O)C[C@@H](C(=O)N2CCOCC2)N(C)C(=O)[C@H](C2CCCC2)N(C)C(=O)C2(CCCC2)NC(=O)[C@@H]2CC(F)(F)CCN2C(=O)[C@H](CCc2ccc(C(F)(F)F)c(Cl)c2)NC(=O)CN(C)C(=O)[C@@H]1Cc1ccc(C(F)(F)F)cc1 [PP0285] ([NMeL]I[NMeA][Aze][NPrPhe(4-CF3)][Sar][hPhe(3-Cl-4-CF3)][Pip(4,4-F2)][Ac5c][NMeGly(cPent)][NMeD]-Morpholide; lactam N-11) | 0.75 nM | B (a compound having 3 or more and less than 10 is denoted as B) | C (A compound having a KD ratio of 0.1 or more and less than 3 is denoted as C)
CCCN1C(=O)[C@@H]2CCN2C(=O)[C@H](C)N(C)C(=O)[C@H]([C@@H](C)CC)NC(=O)[C@H](CC(C)C)N(C)C(=O)C[C@@H](C(=O)N2CCOCC2)N(C)C(=O)[C@H](C2CCCC2)N(C)C(=O)C2(CCCC2)NC(=O)[C@@H]2COCCN2C(=O)[C@H](CCc2ccc(C(F)(F)F)c(Cl)c2)NC(=O)CN(C)C(=O)[C@@H]1Cc1ccc(C(F)(F)F)cc1 [PP0286] ([NMeL]I[NMeA][Aze][NPrPhe(4-CF3)][Sar][hPhe(3-Cl-4-CF3)][Morpholine(3S-CO)][Ac5c][NMeGly(cPent)][NMeD]-Morpholide; lactam N-11) | 0.52 nM | B (a compound having 3 or more and less than 10 is denoted as B) | C (A compound having a KD ratio of 0.1 or more and less than 3 is denoted as C)
CCCN1C(=O)[C@@H]2CCN2C(=O)[C@H](C)N(C)C(=O)[C@H]([C@@H](C)CC)NC(=O)[C@H](CC(C)C)N(C)C(=O)C[C@@H](C(=O)N2CCOCC2)N(C)C(=O)[C@H](C2CCCC2)N(C)C(=O)C2(CCCC2)NC(=O)CN(C)C(=O)[C@H](CCc2ccc(C(F)(F)F)c(Cl)c2)NC(=O)CN(C)C(=O)[C@@H]1Cc1ccc(C(F)(F)F)cc1 [PP0287] ([NMeL]I[NMeA][Aze][NPrPhe(4-CF3)][Sar][hPhe(3-Cl-4-CF3)][Sar][Ac5c][NMeGly(cPent)][NMeD]-Morpholide; lactam N-11) | 0.26 nM | C (A compound having a KD ratio of 0.1 or more and less than 3 is denoted as C) | C (A compound having a KD ratio of 0.1 or more and less than 3 is denoted as C)
CCCN1CC(=O)NC2(CCCC2)C(=O)N(C)[C@@H](C2CCCC2)C(=O)N(C)[C@H](C(=O)N2CCOCC2)CC(=O)N(C)[C@@H](CC(C)C)C(=O)N[C@@H]([C@@H](C)CC)C(=O)N(C)[C@@H](C)C(=O)N2CC[C@H]2C(=O)N(CCC)[C@@H](Cc2ccc(C(F)(F)F)cc2)C(=O)N(C)CC(=O)N[C@@H](CCc2ccc(C(F)(F)F)c(Cl)c2)C1=O [PP0288] ([NMeL]I[NMeA][Aze][NPrPhe(4-CF3)][Sar][hPhe(3-Cl-4-CF3)][NPrGly][Ac5c][NMeGly(cPent)][NMeD]-Morpholide; lactam N-11) | 0.42 nM | B (a compound having 3 or more and less than 10 is denoted as B) | C (A compound having a KD ratio of 0.1 or more and less than 3 is denoted as C)
CCCN1C(=O)CN(C)C(=O)CN(CC)C(=O)[C@H]([C@@H](C)CC)NC(=O)[C@@H]2CCCCCN2C(=O)C[C@@H](C(=O)N2CCOCC2)N(C)C(=O)[C@H](C2CCCC2)N(C)C(=O)C2(CCCC2)NC(=O)[C@@H]2CCCN2C(=O)[C@H](CCc2ccc(C(F)(F)F)c(Cl)c2)NC(=O)CN(C)C(=O)[C@@H]1Cc1ccc(C(F)(F)F)cc1 [PP0289] ([hPip]I[NEtG][Sar][NPrPhe(4-CF3)][Sar][hPhe(3-Cl-4-CF3)]P[Ac5c][NMeGly(cPent)][NMeD]-Morpholide; lactam N-11) | 2.2 nM | B (a compound having 3 or more and less than 10 is denoted as B) | B (a compound having 3 or more and less than 10 is denoted as B)
CCCN1C(=O)CN(C)C(=O)CN(CC)C(=O)[C@H](CC(F)(F)F)NC(=O)[C@H](CC(C)C)N(C)C(=O)C[C@@H](C(=O)N2CCOCC2)N(C)C(=O)[C@H](C2CCCC2)N(C)C(=O)C2(CCCC2)NC(=O)[C@@H]2CCCN2C(=O)[C@H](CCc2ccc(C(F)(F)F)c(Cl)c2)NC(=O)CN(C)C(=O)[C@@H]1Cc1ccc(C(F)(F)F)cc1 [PP0291] ([NMeL][Abu(4,4,4-F3)][NEtG][Sar][NPrPhe(4-CF3)][Sar][hPhe(3-Cl-4-CF3)]P[Ac5c][NMeGly(cPent)][NMeD]-Morpholide; lactam N-11) | 2.2 nM | B (a compound having 3 or more and less than 10 is denoted as B) | B (a compound having 3 or more and less than 10 is denoted as B)
